In US20240308995A1, “O-GLYCOPROTEIN-2-ACETAMIDO-2-DEOXY-3-D-GLUCOPYRANOSIDASE INHIBITORS” (BIOGEN MA INC., priority 2018, published 2024):

Assays:
P-gp (MDR1) = assay: MDR1-MDCK Efflux Ratio Assay; assay type: in vitro ADME; settings: dog, MDCK-MDR1, pH 7.4, MDR1-MDCK cells, 2 hr, pH 7.4; read-out: MDR1-MDCK Efflux Ratio (B-A/A-B)
Description: MDR1-MDCK cell monolayers were grown to confluence on microporous polyester membranes in 96-well Corning insert plates. The permeability assay buffer was Hanks' Balanced Salt Solution containing 10 mM HEPES at pH of 7.4. Loperamide (1 μM) was used as a positive control P-gp substrate. Propranolol and Bestatin (1 μM) were used as high and low permeability comparators, respectively. Test compounds or positive control P-gp substrate/permeability comprators were added to respective apical and basolateral chambers for bidirectional assessment of permeability. Receiver buffer (transport buffer supplemented with 1% bovine serum albumin) was added to respective receiver chambers. MDR1-MDCK cells were incubated with test compounds at 37° C. with 5% CO2 for 2 hr. Samples were collected from the donor chamber at both 0 and 120 minutes, and from the receiver chamber at 120 minutes. Test and control compound concentrations were determined using LC-MS/MS analysis. Each determination was performed in triplicate. The apparent permeability (Papp), efflux ratio and mass balance (percent recovery) were calculated as follows: [formula] where: dCr/dt is the cumulative concentration in the receiver compartment versus time in μM s^−1 Vr is the volume of the receiver compartment in cm^3 Vd is the volume of the donor compartment in cm^3 A is the area of the insert (0.143 cm^2 for 96-well insert) CE is the estimated experimental concentration (Time=0) of the dosing solution Cr^final is the concentration of the receiver at the end of the incubation period Cd^final is the concentration of the donor at the end of the incubation period.

[1] = molecular target: OGA (S400 O-GLCNAC), HEK-293T cells transfected with Tau-V5 (Homo sapiens (Human), UniProt O60502); assay: Cellular OGA-Tau MSD Assay; assay type: cell-based; settings: HEK-293T cells, Tau-S400-GlcNAc MSD readout
Chain of OGA (S400 O-GLCNAC), HEK-293T cells transfected with Tau-V5 (O60502 whole entry): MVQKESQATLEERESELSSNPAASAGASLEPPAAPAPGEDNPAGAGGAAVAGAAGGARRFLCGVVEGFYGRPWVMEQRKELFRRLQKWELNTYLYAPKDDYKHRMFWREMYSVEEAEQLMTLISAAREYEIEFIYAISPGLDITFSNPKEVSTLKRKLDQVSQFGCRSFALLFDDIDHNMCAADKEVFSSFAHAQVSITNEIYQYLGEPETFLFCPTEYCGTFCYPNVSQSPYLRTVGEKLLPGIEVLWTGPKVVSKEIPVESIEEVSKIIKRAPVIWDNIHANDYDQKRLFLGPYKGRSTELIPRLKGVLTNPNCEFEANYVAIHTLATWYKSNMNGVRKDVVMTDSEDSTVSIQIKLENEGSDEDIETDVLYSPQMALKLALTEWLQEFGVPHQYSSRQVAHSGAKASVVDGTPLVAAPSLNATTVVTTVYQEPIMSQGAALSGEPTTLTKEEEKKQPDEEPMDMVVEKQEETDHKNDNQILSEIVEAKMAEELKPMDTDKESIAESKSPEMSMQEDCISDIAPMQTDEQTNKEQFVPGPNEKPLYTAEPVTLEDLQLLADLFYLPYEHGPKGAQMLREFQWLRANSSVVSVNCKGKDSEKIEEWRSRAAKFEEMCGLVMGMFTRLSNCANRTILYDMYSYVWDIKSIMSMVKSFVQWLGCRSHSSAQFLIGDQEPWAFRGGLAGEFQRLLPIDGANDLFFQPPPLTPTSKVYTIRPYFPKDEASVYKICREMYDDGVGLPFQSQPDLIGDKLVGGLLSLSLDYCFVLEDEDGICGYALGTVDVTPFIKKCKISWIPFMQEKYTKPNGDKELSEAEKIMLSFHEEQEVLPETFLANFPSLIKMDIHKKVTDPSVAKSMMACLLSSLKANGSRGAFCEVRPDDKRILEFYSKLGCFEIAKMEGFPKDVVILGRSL
Description: HEK-293T cells were transfected with […] and Tau-V5 plasmids using Lipofectamine and grown overnight. Next day, the cells were collected and re-plated at 1×10^5 cells per well in 96 well plates. Cells were incubated for 4 hr at 37° C., before compounds were added at 1 uM, with 3-fold dilutions in a 10-point titration. Cell plates were incubated with compounds overnight at 37° C. The next day media was removed from wells by gentle aspiration and 120 ul of 1× Cell Lysis buffer mixed with protease and phosphatase cocktail added to each well. A freeze thaw was performed at -80° C., then mixed before transferring 50 ul to MSD plates coated with V5-tag antibody to capture Tau. MSD Plates were incubated overnight at 4° C., on a plate shaker. The following day, plates were washed and incubated with Tau-[…]-GlcNAc antibody for 2 hr and then developed with rabbit Sulfo-tag antibody. Final read out was carried out on an MSD 600 reader. The data was analyzed using Graph Pad or Genedata, the data was normalized and % activity versus log of compound concentration was plotted. The IC50 values were obtained from a 4 parameter fit.

[2] = Rat Liver Microsome Stability Assay; assay type: in vitro ADME; settings: rat liver microsomes, 1 uM compound
[3] = molecular target: Recombinant full length human OGA enzyme (Homo sapiens (Human), UniProt O60502); assay: OGA Enzyme Inhibition Biochemical Assay; settings: 1 nM OGA, 100 μM 4-MUGlcNAc, pH 6.4
Chain of Recombinant full length human OGA enzyme (O60502 whole entry): as above
Description: Recombinant full length human OGA enzyme was purchased from Origene. 4-MUGlcNAc substrate was purchased from Sigma. All other reagents were purchased from Sigma or Fisher. Assay buffer consists of the McIlvaine buffer system, pH 6.4 (0.2M Na2HPO4 mixed with 0.1M citric acid) and 0.01% BSA. […] Reactions were incubated for 90 minutes at room temperature and quenched with 40 μl of 3M glycine, pH 10 and read on a Perkin Elmer Envision plate reader (Ex: 355 nm/Em: 460 nm). Compounds were tested with a 10-point dose-response starting from 20 μM with a 4-fold dilution. Data was fit using GraphPad Prism using a 4-parameter fit with variable slope.

Row | SMILES | efflux ratio at 2 h (P-gp (MDR1)) | IC50 [1] [nM] | RLM % Qh (%) [2] [%] | IC50 [3] [nM]
1 | CCNc1cc(O[C@@H]2C[C@H](C)N(Cc3cnc(NC(C)=O)s3)C2)ncn1 [Example 1-135, N-(5-(((2S,4R)-4-((6-(ethylamino)pyrimidin-4-yl)oxy)-2-methylpyrrolidin-1-yl)methyl)thiazol-2-yl)acetamide] | 76.5 | 1 | 36 | < 1
2 | CC(=O)Nc1nc(F)c(CN2C[C@H](Oc3ncc(F)cn3)C[C@@H]2C)s1 [Example 1-112, N-(4-fluoro-5-(((2S,4R)-4-((5-fluoropyrimidin-2-yl)oxy)-2-methylpyrrolidin-1-yl)methyl)thiazol-2-yl)acetamide] | 5.3 | 1 | 45 | < 1
3 | CC(=O)Nc1nc(F)c(CN2CCC[C@H](Oc3cc(C)nc(C)c3)C2)s1 [Example 1-54, (S)—N-(5-((3-((2,6-dimethylpyridin-4-yl)oxy)piperidin-1-yl)methyl)-4-fluorothiazol-2-yl)acetamide] | 25.4 | 70 | 78 | 11
4 | COc1cnc(O[C@@H]2C[C@H](C)N(Cc3sc(NC(C)=O)nc3F)C2)nc1 [Example 1-89, N-(4-fluoro-5-(((2S,4R)-4-((5-methoxypyrimidin-2-yl)oxy)-2-methylpyrrolidin-1-yl)methyl)thiazol-2-yl)acetamide] | 19.7 | < 1 | 66 | < 1
5 | CC(=O)Nc1nc(F)c(CN2C[C@H](Oc3cc(N4CCOCC4)ccn3)C[C@@H]2C)s1 [Example 1-143, N-(4-fluoro-5-(((2S,4R)-2-methyl-4-((4-morpholinopyridin-2-yl)oxy)pyrrolidin-1-yl)methyl)thiazol-2-yl)acetamide] | 25.6 | 4 | 75 | < 1
6 | CC(=O)Nc1ncc(CN2C[C@H](Oc3ncc(F)cn3)C[C@@H]2C)s1 [Example 1-86, N-(5-(((2S,4R)-4-((5-fluoropyrimidin-2-yl)oxy)-2-methylpyrrolidin-1-yl)methyl)thiazol-2-yl)acetamide] | 11.2 | < 1 | 26 | < 1
7 | CC(=O)Nc1ncc(CN2CC[C@H](Oc3cc(C)nc(C)c3)C2)s1 [Example 1-58, (S)—N-(5-((3-((2,6-dimethylpyridin-4-yl)oxy)pyrrolidin-1-yl)methyl)thiazol-2-yl)acetamide] | 28.5 | > 1000 | 16 | 520
8 | CC(=O)Nc1ncc(CN2CCC[C@@H](Oc3cc(C)nc(C)c3)C2)s1 [Example 1-65, (R)—N-(5-((3-((2,6-dimethylpyridin-4-yl)oxy)piperidin-1-yl)methyl)thiazol-2-yl)acetamide] | 17 | 18 | 85 | 2.1
9 | COc1cc(O[C@@H]2CC[C@H](C)N(Cc3cnc(NC(C)=O)s3)C2)ncn1 [Example 1-44, N-(5-(((2S,5R)-5-((6-methoxypyrimidin-4-yl)oxy)-2-methylpiperidin-1-yl)methyl)thiazol-2-yl)acetamide] | 9.3 | 2 | 88 | < 1
10 | CC(=O)Nc1ncc(CN2C[C@H](Oc3ccccn3)C[C@@H]2C)s1 [Example 1-14, N-(5-(((2S,4R)-2-methyl-4-(pyridin-2-yloxy)pyrrolidin-1-yl)methyl)thiazol-2-yl)acetamide] | 2.9 | 5 | 68 | 1.3
11 | CC(=O)Nc1ncc(CN2C[C@H](Oc3cnc(C)cn3)C[C@@H]2C)s1 [Example 1-69, N-(5-(((2S,4R)-2-methyl-4-((5-methylpyrazin-2-yl)oxy)pyrrolidin-1-yl)methyl)thiazol-2-yl)acetamide] | 6.1 | 3 | 59 | < 1
